Reference: PMC3551771, “Pharmacological modulation of histone demethylase activity by a small molecule isolated from subcritical water extracts of Sasa senanensis leaves prolongs the lifespan of Drosophila melanogaster” (BMC Complementary and Alternative Medicine, 2012)

Key:
Test in all cases: fluorogenic JMJD demethylase assay kit, biotinylated histone H3 peptide substrate
Assay type in all cases: biochemical
JMJD2A = biological target: T1, JMJD2A (Homo sapiens, UniProt O75164)
T1 construct: gene KDM4A
T1 sequence (O75164 2-1064): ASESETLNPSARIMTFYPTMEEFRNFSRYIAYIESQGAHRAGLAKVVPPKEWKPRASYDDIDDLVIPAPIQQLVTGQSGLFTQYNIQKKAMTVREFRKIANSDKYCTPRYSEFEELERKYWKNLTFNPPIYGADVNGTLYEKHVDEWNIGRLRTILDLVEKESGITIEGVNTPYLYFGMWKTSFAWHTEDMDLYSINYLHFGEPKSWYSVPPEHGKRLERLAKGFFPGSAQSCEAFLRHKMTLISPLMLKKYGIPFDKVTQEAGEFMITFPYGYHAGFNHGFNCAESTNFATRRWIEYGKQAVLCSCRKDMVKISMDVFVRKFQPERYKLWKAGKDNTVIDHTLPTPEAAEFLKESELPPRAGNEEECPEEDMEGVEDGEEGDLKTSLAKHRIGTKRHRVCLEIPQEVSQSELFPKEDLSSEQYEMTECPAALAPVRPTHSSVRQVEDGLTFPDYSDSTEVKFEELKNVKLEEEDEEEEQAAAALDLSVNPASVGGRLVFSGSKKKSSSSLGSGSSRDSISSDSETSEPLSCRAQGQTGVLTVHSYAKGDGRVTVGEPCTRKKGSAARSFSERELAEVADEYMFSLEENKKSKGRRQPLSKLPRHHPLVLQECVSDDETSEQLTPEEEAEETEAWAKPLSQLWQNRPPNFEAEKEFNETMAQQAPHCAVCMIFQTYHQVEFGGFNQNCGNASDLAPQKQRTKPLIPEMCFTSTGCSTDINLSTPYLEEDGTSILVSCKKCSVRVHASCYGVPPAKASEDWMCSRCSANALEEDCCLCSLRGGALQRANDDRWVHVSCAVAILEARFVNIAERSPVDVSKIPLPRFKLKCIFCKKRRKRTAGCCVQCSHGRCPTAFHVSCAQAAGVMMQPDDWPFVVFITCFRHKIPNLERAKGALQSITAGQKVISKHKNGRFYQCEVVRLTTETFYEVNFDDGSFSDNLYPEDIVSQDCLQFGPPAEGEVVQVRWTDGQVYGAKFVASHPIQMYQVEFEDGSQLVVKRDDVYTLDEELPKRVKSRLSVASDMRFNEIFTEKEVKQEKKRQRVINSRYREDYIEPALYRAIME

JMJD2C = biological target: T2, JMJD2C (Homo sapiens, UniProt Q9H3R0)
T2 construct: gene KDM4C
T2 sequence (Q9H3R0 1-1056): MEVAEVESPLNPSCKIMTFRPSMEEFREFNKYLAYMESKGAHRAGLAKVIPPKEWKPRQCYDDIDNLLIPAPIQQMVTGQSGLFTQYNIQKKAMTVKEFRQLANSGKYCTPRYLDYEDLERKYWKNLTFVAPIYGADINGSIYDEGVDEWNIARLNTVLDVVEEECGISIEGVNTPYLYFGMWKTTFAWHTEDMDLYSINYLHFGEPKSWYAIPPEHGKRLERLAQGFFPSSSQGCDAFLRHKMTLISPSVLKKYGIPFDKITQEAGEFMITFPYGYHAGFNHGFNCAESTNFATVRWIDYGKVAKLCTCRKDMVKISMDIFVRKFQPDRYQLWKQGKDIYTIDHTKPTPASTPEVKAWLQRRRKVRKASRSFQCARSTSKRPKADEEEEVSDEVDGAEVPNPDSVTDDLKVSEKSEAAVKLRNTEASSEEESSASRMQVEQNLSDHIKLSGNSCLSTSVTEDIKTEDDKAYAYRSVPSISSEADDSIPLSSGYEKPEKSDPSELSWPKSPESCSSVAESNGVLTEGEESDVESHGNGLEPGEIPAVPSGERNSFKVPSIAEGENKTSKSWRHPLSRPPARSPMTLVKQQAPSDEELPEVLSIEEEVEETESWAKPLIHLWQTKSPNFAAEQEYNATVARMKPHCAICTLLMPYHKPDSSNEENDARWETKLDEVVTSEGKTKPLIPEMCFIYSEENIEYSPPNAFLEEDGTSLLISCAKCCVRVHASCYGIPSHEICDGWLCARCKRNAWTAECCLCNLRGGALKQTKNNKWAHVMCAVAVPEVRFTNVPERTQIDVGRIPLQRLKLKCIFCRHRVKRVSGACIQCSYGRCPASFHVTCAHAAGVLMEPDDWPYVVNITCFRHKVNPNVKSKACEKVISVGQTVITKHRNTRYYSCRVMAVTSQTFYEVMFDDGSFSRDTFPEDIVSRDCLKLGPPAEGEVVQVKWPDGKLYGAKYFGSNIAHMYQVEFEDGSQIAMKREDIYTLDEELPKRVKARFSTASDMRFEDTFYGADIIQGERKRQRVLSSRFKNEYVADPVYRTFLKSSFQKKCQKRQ

JMJD2B = biological target: T3, JMJD2B (Homo sapiens, UniProt O94953)
T3 construct: gene KDM4B
T3 sequence (O94953 1-1096): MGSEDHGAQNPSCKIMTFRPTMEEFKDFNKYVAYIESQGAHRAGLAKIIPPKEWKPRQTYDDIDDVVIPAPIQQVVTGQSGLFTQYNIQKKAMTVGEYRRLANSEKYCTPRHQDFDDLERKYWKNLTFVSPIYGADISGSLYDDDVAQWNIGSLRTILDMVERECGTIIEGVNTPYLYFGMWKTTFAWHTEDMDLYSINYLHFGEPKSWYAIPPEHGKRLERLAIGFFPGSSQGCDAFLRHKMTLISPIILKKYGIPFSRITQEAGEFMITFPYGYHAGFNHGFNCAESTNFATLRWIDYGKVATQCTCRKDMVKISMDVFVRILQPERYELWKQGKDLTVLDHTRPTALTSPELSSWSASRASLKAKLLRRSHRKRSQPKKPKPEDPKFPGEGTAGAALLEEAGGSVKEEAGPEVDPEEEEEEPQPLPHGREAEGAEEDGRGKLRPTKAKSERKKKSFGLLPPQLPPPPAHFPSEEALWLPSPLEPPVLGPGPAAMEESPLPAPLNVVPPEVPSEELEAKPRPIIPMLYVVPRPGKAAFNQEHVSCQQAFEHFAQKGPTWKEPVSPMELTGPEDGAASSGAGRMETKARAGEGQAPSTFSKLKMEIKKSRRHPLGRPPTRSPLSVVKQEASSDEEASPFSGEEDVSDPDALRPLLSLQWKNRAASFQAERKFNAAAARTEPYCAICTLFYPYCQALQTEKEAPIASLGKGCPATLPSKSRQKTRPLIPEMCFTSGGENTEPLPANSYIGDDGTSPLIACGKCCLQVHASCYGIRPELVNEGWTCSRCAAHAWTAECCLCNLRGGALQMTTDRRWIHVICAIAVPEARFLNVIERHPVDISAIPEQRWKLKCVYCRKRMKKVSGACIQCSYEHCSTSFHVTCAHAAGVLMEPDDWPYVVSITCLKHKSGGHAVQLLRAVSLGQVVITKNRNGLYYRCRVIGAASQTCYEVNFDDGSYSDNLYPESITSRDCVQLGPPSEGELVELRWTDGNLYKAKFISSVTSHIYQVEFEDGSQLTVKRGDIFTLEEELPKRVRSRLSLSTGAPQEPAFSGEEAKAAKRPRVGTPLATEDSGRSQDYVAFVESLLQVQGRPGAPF
Description: IC50 values are mean ± SEM

- IC50 (JMJD2A): 11.6 ± 1.5 µM
- IC50 (JMJD2C): 33.7 ± 7.8 µM
- IC50 (JMJD2B): 38.6 ± 10 µM
Compound: O=Cc1ccc(O)c(O)c1 [PA, 3,4-dihydroxybenzaldehyde]
